Experimental data from paper PMC9737981, “Molecular Hybridization Strategy on the Design, Synthesis, and Structural Characterization of Ferrocene-N-acyl Hydrazones as Immunomodulatory Agents” (Molecules, 2022).

Legend:
nitric oxide production = test: Inhibition of nitric oxide (nitrite) production in J774 macrophages stimulated with LPS + IFN-γ (Griess); format: cell-based; conditions: for Inhibition of NO (%) Production at 40 μM: 24 h incubation with compounds and LPS plus IFN-γ
Experimental: (§1) Immortalized J774 macrophages (2 × 10^5 cells/well) or peritoneal macrophages (2 × 10^5 cells/well) were incubated in 96-well plates in a DMEM medium supplemented with 10% FBS and 50 µg/mL of gentamicin, in triplicate, stimulated or not with LPS (500 ng/mL) and IFN-γ (5 ng/mL), and treated or not with different concentrations of the evaluated ferrocenyl-N-acyl hydrazones. The cells were incubated for 4 or 24 h at 37 °C and 5% CO2. Cell-free supernatants were collected after 4 h (for TNFα measurement) and 24 h (for IL-1β, TNFα, and nitrite quantifications), and kept at −80 °C until use.
(§2) The dosage of cytokines IFN-γ, IL-1β, IL-2, IL-4, and TNFα was performed from the supernatant of peritoneal macrophages or splenocytes were determined by enzyme-linked immunosorbent assay (ELISA), using DuoSet kits from R&D Systems, according to the manufacturer’s instructions. Nitric oxide production was estimated in macrophage culture supernatants harvested at 24 h using the Griess method for nitrite quantification.

TNFα = TNFα production by peritoneal macrophages stimulated with LPS + IFN-γ (ELISA); format: cell-based, BALB/c mice
Experimental: as §1, §2

IFN-γ = IFN-γ production by splenocytes stimulated with concanavalin A (ELISA); format: cell-based, BALB/c mice; conditions: 10 µM; Con A 5 µg/mL; 24 h
Experimental: (§3) BALB/c splenocyte suspensions were prepared in a DMEM medium supplemented with FBS and gentamicin. Splenocytes (5 × 10^6 cells/well) were plated in 24-well plates, in triplicate, and stimulated or not with concanavalin A (Con A; 5 µg/mL, Sigma-Aldrich). To evaluate lymphocyte function, splenocytes were activated in the absence or presence of various concentrations of SintMed149 and SintMed150 (10, 20, and 40 µM). After 24 h of treatment, cell-free supernatants were collected and kept at −80 °C until use.
as §2

IL-1β = IL-1β production by peritoneal macrophages stimulated with LPS + IFN-γ (ELISA); format: cell-based, BALB/c mice
Experimental: as §1, §2

IL-4 = IL-4 production by splenocytes stimulated with concanavalin A (ELISA); format: cell-based, BALB/c mice; conditions: Con A 5 µg/mL, 24 h
Experimental: as §3, §2

nitrite production = test: Nitrite production by activated peritoneal macrophages (Griess); format: cell-based, BALB/c mice; conditions: LPS + IFN-γ
Experimental: as §1, §2

IL-2 = IL-2 production by splenocytes stimulated with concanavalin A (ELISA); format: cell-based, BALB/c mice; conditions: Con A 5 µg/mL, 24 h
Experimental: as §3, §2

[1] = tested on: LPS-induced endotoxic shock; test: LPS-induced endotoxin shock (survival); format: in vivo, BALB/c mice; conditions: 25 mg/kg, lethal LPS, monitored 4 days
Experimental: Groups of five male BALB/c mice (4 weeks of age) were used for the LPS lethality assays. Mice were treated with different doses of SintMed150 (50 or 100 mg/kg), dexamethasone (25 mg/kg), or vehicle (solution containing 30% sorbitol, 10% Tween 80, and 60% saline), by intraperitoneal (i.p.) route. Ninety minutes later, animals were challenged with 600 µg of LPS (from serotype 0111:B4 Escherichia coli, Sigma-Aldrich) in saline, by i.p. route. The survival rate was then monitored daily during 4 days.

[2] = tested on: carrageenan-induced acute peritonitis; test: Carrageenan-induced acute peritonitis (neutrophil migration); format: in vivo, BALB/c mice; conditions: 25 mg/kg; compared to vehicle
Experimental: Next, animals were challenged with a 250 μL injection of carrageenan (1 mg/mL; intraperitoneal route). After 4 h, animals were euthanized and peritoneal exudates were harvested by peritoneal lavage using 2.5 mL of saline solution. Cells were centrifuged at 400× g for 10 min, at 4 °C. The pellet was resuspended in saline (1 mL). Total leukocytes in the peritoneal fluid were determined in a Neubauer chamber after dilution in Trypan blue stain. Differential counting of neutrophils was carried out in rapid panotype-stained cytospin preparations. A differential count of 300 cells was made in a blinded fashion and according to standard morphologic criteria.

peritoneal macrophages = test: Cytotoxicity to peritoneal macrophages activated with LPS + IFNγ (Alamar Blue); format: cell-based, BALB/c mice
Experimental: The second set of experiments was performed using peritoneal macrophages activated with LPS (500 ng/mL, Sigma-Aldrich) and IFNγ (5 ng/mL; Sigma-Aldrich).
Peritoneal exudate macrophages were obtained by washing, with a cold DMEM medium, the peritoneal cavity of BALB/c mice 4–5 days after injection of 3% thioglycolate (Sigma-Aldrich) in saline (1.5 mL per mouse). Cells were seeded into 96-well plates at a cell density of 1 × 10^5 cells/well in a DMEM medium supplemented with 10% FBS and 50 µg/mL of gentamicin and incubated for 24 h at 37 °C and 5% CO2. […] At the end of treatment, 20 µL/well of Alamar Blue (Invitrogen) were added to the plates for 10 h. Colorimetric readings were performed at 570 and 600 nm using a SpectraMax 190 Microplate Reader (Molecular Devices, Sunnyvale, CA, USA).

J774 macrophages = test: Cytotoxicity to J774 macrophages (Alamar Blue); format: cell-based; conditions: 72 h, read-out: CC50 (µM) JJ74
Experimental: J774 macrophages were seeded into 96-well plates at a cell density of 1 × 10^4 cells/well in a DMEM medium supplemented with 10% fetal bovine serum (FBS; GIBCO) and 50 µg/mL of gentamicin (Life Technologies, Carlsbad, CA, USA) and incubated for 24 h at 37 °C and 5% CO2. After that time, each compound was added in six concentrations (50–1.56 µM), in triplicate, and incubated for 72 h. At the end of treatment, 20 µL/well of Alamar Blue (Invitrogen) was added to the plates for 4 h. […]
As a positive control, gentian violet was used at concentrations ranging from 0.04 to 10 µM. CC50 values were calculated using data from three independent experiments.
To determine the cytotoxicity concentration of 50% of J774 macrophages (CC50), we used non-linear regression. One-way analysis of variance and Newman–Keuls multiple comparison tests were employed by using Graph Pad Prism version 8.0.1 (Graph Pad Software; San Diego, CA, USA). Differences were considered significant when the values of p were < 0.05. The data are representative of at least two or three experiments.

| Compound | Inhibition of NO (%) Production at 40 μM (nitric oxide production) | CC50 (J774 macrophages) [µM] | further results |
| --- | --- | --- | --- |
| C[C@@H]1C[C@H]2[C@@H]3CCC4=CC(=O)C=C[C@]4(C)[C@@]3(F)[C@@H](O)C[C@]2(C)[C@@]1(O)C(=O)CO [Dexamethasone, reference compound] |  |  | inhibition at 40 µM (nitric oxide production; Mus musculus, J774, 24 h incubation with compounds and LPS plus IFN-γ, read-out: Inhibition of NO (%) Production at 40 μM): 64.9%; TNF production (TNFα; 10 µM): promoted the reduction; IFN-γ levels (IFN-γ): significantly reduced; IL-1β production (IL-1β; 10 µM): promoted the reduction; IL-4 levels (IL-4; 10 µM): significantly reduced; Nitrite production (nitrite production; 10 µM): promoted the reduction; IL-2 levels (IL-2; 10 µM): significantly reduced; Survival rate [1]: 83.3%; Reduction in neutrophil migration [2]: 55%; Cytotoxicity (cell viability) in peritoneal macrophages (peritoneal macrophages; 40 µM): not cytotoxic |
| O=C(N/N=C/[c-]1cccc1)c1ccccc1.[Fe+2].c1cc[cH-]c1 [SintMed141, (E)-N′-(Ferrocenylmethylidene)benzohydrazide] | 19.7 (±3.0) % | > 50 |  |
| O=C(N/N=C/[c-]1cccc1)c1ccccc1Cl.[Fe+2].c1cc[cH-]c1 [SintMed142, (E)-N′-(Ferrocenylmethylidene)-2-chlorobenzohydrazide] | 49.3 (±0.8) % | > 50 |  |
| O=C(N/N=C/[c-]1cccc1)c1ccco1.[Fe+2].c1cc[cH-]c1 [SintMed143, (E)-N′-(Ferrocenylmethylidene)furan-2-ylcarbohydrazide] | 49.2 (±1.9) % | > 50 |  |
| N#Cc1ccc(C(=O)N/N=C/[c-]2cccc2)cc1.[Fe+2].c1cc[cH-]c1 [SintMed144, (E)-N′-(Ferrocenylmethylidene)-4-cyanobenzohydrazide] | 55.2 (±0.6) % | > 50 |  |
| O=C(N/N=C/[c-]1cccc1)c1ccc2ccccc2n1.[Fe+2].c1cc[cH-]c1 [SintMed145, (E)-N′-(Ferrocenylmethylidene)quinolin-2-ylcarbohydrazide] | 49.6 (±2.6) % | > 50 |  |
| CC(C)(C)c1cc(C(=O)N/N=C/[c-]2cccc2)cc(C(C)(C)C)c1O.[Fe+2].c1cc[cH-]c1 [SintMed146, (E)-N′-(Ferrocenylmethylidene)-3,5-tert-butyl-4-hydroxybenzohydrazide] | 14.4 (±2.2) % | > 50 |  |
| O=C(N/N=C/[c-]1cccc1)c1ccc(C(F)(F)F)cc1.[Fe+2].c1cc[cH-]c1 [SintMed147, (E)-N′-(Ferrocenylmethylidene)-4-(trifluoromethyl)benzohydrazide] | 59.9 (±0.3) % | > 50 |  |
| Cc1ccccc1C(=O)N/N=C/[c-]1cccc1.[Fe+2].c1cc[cH-]c1 [SintMed148, (E)-N′-(Ferrocenylmethylidene)-2-methylbenzohydrazide] | 56.6 (±2.1) % | > 50 |  |
| O=C(N/N=C/[c-]1cccc1)c1ccccc1Br.[Fe+2].c1cc[cH-]c1 [SintMed149, (E)-N′-(Ferrocenylmethylidene)-2-bromobenzohydrazide] | 71.7 (±3.6) % | > 50 | TNF production (TNFα; 10, 20 and 40 µM, 4 h, p < 0.05): inhibitory effect; IL-1β production (IL-1β; 10, 20 and 40 µM, 24 h, p < 0.05): inhibitory effect; IL-4 levels (IL-4; 10, 20, 40 µM): did not significantly reduce; Nitrite production (nitrite production; 10, 20 and 40 µM, p < 0.05): inhibited, in a concentration-dependent manner; IL-2 levels (IL-2; 10, 20, 40 µM): significant and concentration-dependent reduction; Cytotoxicity (cell viability) in peritoneal macrophages (peritoneal macrophages; all concentrations tested (10, 20, 40 µM)): not cytotoxic |
| O=C(N/N=C/[c-]1cccc1)c1cc(O)c(O)c(O)c1.[Fe+2].c1cc[cH-]c1 [SintMed151, (E)-N′-(Ferrocenylmethylidene)-3,4,5-trihydroxybenzohydrazide] | 25.2 (±2.1) % | > 50 |  |
| COc1cc(C(=O)N/N=C/[c-]2cccc2)cc(OC)c1OC.[Fe+2].c1cc[cH-]c1 [SintMed152, (E)-N′-(Ferrocenylmethylidene)-3,4,5-trimethoxybenzohydrazide] | 55.5 (±1.7) % | > 50 |  |
| COc1cc(C(=O)N/N=C/[c-]2cccc2)cc(OC)c1OC.[Fe+2].c1cc[cH-]c1 [SintMed153, (E)-N′-(Ferrocenylmethylidene)-3,4,5-trimethoxybenzohydrazide] | 43.7 (±3.3) % | > 50 |  |
| O=C(N/N=C/[c-]1cccc1)c1cccc(Cl)c1.[Fe+2].c1cc[cH-]c1 [SintMed154, (E)-N′-(Ferrocenylmethylidene)-3-chlorobenzohydrazide] | 45.2 (±2.1) % | > 50 |  |
| O=C(N/N=C/[c-]1cccc1)c1cccc2ccccc12.[Fe+2].c1cc[cH-]c1 [SintMed155, (E)-N′-(Ferrocenylmethylidene)-1-naphtylcarbohydrazide] | 35.6 (±0.7) % | > 50 |  |
| COc1ccc(C(=O)N/N=C/[c-]2cccc2)c(OC)c1.[Fe+2].c1cc[cH-]c1 [SintMed156, (E)-N′-(Ferrocenylmethylidene)-2,4-dimethoxybenzohydrazide] | 46.7 (±3.0) % | > 50 |  |
